This note sets out measurements from patent US11252962B2, “Cyclopropylpyridyl group-containing benzimidazole compound or salt thereof, agricultural and horticultural insecticide comprising the compound or the salt, and method for using the insecticide” (NIHON NOHYAKU CO., LTD., priority 2017, dated 2022).

For orientation: mortality means the share of the test organisms that died. What is called inhibition is the percentage by which the read-out fell short of the control.

For experiment [1], the system named is Plutella xylostella. As to the kind of experiment: Insecticidal test on Plutella xylostella. The experiment is classed as in vivo. The conditions noted are these: 144 h, Chinese cabbage seedlings with laid eggs dipped about 30 seconds, 6 days after dip treatment, 25° C., read-out: insecticidal efficacy (corrected mortality rate), activity level. The protocol:
Insecticidal Test on Plutella xylostella
Adults of P. xylostella were released onto Chinese cabbage seedlings and allowed to lay eggs thereon. […] After air-dried, the seedlings were kept in a thermostatic chamber at 25° C. […] This test was conducted in triplicate using 10 adults of P. xylostella per plot. Corrected mortality rate (%)=100×(Number of hatched larvae in a non-treatment plot−Number of hatched larvae in a treatment plot)/Number of hatched larvae in a non-treatment plot [Math. 3]

Experiment [2] has as its system Laodelphax striatellus. Kind of experiment: Insecticidal test on Laodelphax striatellus. The experiment is classed as in vivo. The conditions noted are these: 192 h, rice seedlings dipped 30 seconds, 3rd-instar larvae, 8 days after inoculation, read-out: insecticidal efficacy (corrected mortality rate), activity level. The protocol: Insecticidal Test on Laodelphax striatellus
Rice plant seedlings (variety: Nihonbare) were dipped in the agrochemical dispersions for 30 seconds. After air-dried, each seedling was put into a separate glass test tube and inoculated with ten 3rd-instar larvae of L. striatellus, and then the glass test tubes were capped with cotton plugs. At 8 days after the inoculation, the numbers of surviving larvae and dead larvae were counted, the corrected mortality rate was calculated according to the formula shown below, and the insecticidal efficacy was evaluated according to the criteria shown below. Corrected mortality rate (%)=100×(Survival rate in a non-treatment plot−Survival rate in a treatment plot)/Survival rate in a non-treatment plot [Math. 2] Corrected Mortality Rate A: the corrected mortality rate is 100%.

Experiment [3] deals with Myzus persicae. As to the kind of experiment: Test for control efficacy on Myzus persicae. The conditions noted are these: 144 h, foliar application to potted Chinese cabbage, 6 days after application, read-out: control efficacy (control rate), activity level. The experiment is classed as in vivo. An excerpt:
Test for Control Efficacy on Myzus persicae Chinese cabbage plants were planted in plastic pots (diameter: 8 cm, height: 8 cm), Green peach aphids (M. persicae) were propagated on the plants, and the number of surviving Green peach aphids in each pot was counted. […] The agrochemical dispersions were applied to the foliage of the potted Chinese cabbage plants. After the plants were air-dried, the pots were kept in a greenhouse. At 6 days after the foliar application, the number of surviving Green peach aphids on the Chinese cabbage plant in each pot was counted, the control rate was calculated according to the formula shown below, and the control efficacy was evaluated according to the criteria shown below. Control rate=100−{(T×Ca)/(Ta×C)}×100 [Math. 1] Ta: the number of survivors before the foliar application in a treatment plot T: the number of survivors after the foliar application in a treatment plot Ca: the number of survivors before the foliar application in a non-treatment plot C: the number of survivors after the foliar application in a non-treatment plot Criteria A: the control rate is 100%. […] C: the control rate is 80 to 89%.

Experiment [4] deals with Haemonchus contortus. Kind of experiment: Parasiticidal test on Haemonchus contortus (larval motility). The conditions noted are these: 1st-instar larvae, 96-well plates, 27° C., 96 hours, read-out: percent inhibition in motility. From the text:
Parasiticidal Test on Haemonchus contortus
Eggs of H. contortus were collected from feces of a goat and hatched in water. […] Percent inhibition in motility (%)=100×(Average motility in negative control wells−Average motility in treated wells)/Average motility in negative control wells [Math. 5]

In experiment [5] the test system is Ctenocephalides felis. Kind of experiment: Parasiticidal test on Ctenocephalides felis. The class given is in vivo. The conditions noted are these: 50 ppm in bovine blood, adults, artificial feeding system 35° C., 24 hours after treatment, read-out: corrected mortality rate.
Procedure: Parasiticidal Test on Ctenocephalides felis
Newly-emerged adults of C. felis were placed into test cages (10 adults per test cage), and the test cages were maintained at 35° C. in an artificial feeding system. At 24 hours after agrochemical treatment, the numbers of surviving and dead adults were counted, and the corrected mortality rate was calculated according to the formula shown below. Corrected mortality rate (%)=100×(Survival rate in a negative control group−Survival rate in a treatment group)/Survival rate in a negative control group [Math.
Experiment [6] relates to Rhipicephalus sanguineus. Kind of experiment: Parasiticidal test on Rhipicephalus sanguineus. The experiment is classed as in vivo. The conditions noted are these: treated filter paper, nymphs, 27° C., 48 hours after treatment, read-out: corrected mortality rate. The procedure: Parasiticidal Test on Rhipicephalus sanguineus
The diluted formulations were applied dropwise onto filter paper pieces placed in separate vials. The filter paper pieces were dried. Ten nymphs of R. sanguineus were placed into each vial and maintained at 27° C. with 80% humidity under a 12L12D light-dark cycle (L: light time, D: dark time). At 48 hours after agrochemical treatment, the numbers of surviving and dead nymphs were counted, and the corrected mortality rate was calculated according to the formula of Math. 4.

On to `CCSc1cc(C2CC2)cnc1-c1nc2cc(SC(F)(F)F)ccc2n1C` [Compound 1-1, 2-(3-ethylthio-5-cyclopropylpyridin-2-yl)-1-methyl-5-(trifluoromethylthio)benzimidazole], for which the mortality at 500 ppm in experiment [1] and in experiment [2] was 100% in each case. Besides, in experiment [3], the pest or weed control at 500 ppm was found to be 100%.
Turning to `CCS(=O)(=O)c1cc(C2CC2)cnc1-c1nc2cc(OC(F)(F)F)ccc2n1C` [Compound 1-27, 2-(5-cyclopropyl-3-ethylsulfonyl-pyridin-2-yl)-1-methyl-5-trifluoromethoxybenzimidazole], the mortality at 500 ppm in experiment [1] and in experiment [2] was 100% throughout. Moreover, in experiment [3], the pest or weed control at 500 ppm came to 100%.
In the case of `CC[S+]([O-])c1cc(C2CC2)cnc1-c1nc2cc(SC(F)(F)F)ccc2n1C` (stereo not drawn) [Compound 1-2, 2-(3-ethylsulfinyl-5-cyclopropylpyridin-2-yl)-1-methyl-5-(trifluoromethylthio)benzimidazole], the mortality at 500 ppm in experiment [1] and in experiment [2] was 100% each time. Further, in experiment [3], the pest or weed control at 500 ppm was 100%.
As for `CCS(=O)(=O)c1cc(C2CC2)cnc1-c1nc2cc(SC(F)(F)F)ccc2n1C` [Compound 1-3, 2-(3-ethylsulfonyl-5-cyclopropylpyridin-2-yl)-1-methyl-5-(trifluoromethylthio)benzimidazole], the mortality at 500 ppm in experiment [1] and in experiment [2] was 100% each time. For the same compound, the inhibition at 100 ppm in experiment [4] is at least 50%. Also, the mortality at 50 ppm in experiment [5] is at least 90%. The mortality at 100 ppm in experiment [6] was at least 90%. The pest or weed control at 500 ppm in experiment [3] turned out to be 100%.
On to `CCSc1cc(C2(C#N)CC2)cnc1-c1nc2cc(OC(F)(F)F)ccc2n1C` [Compound 1-83, 2-(5-(1-cyanocyclopropyl)-3-ethylthiopyridin-2-yl)-1-methyl-5-trifluoromethoxybenzimidazole], for which the mortality at 500 ppm in experiment [1] and in experiment [2] was 100% in each case. The pest or weed control at 500 ppm in experiment [3] is 100%.
As to `CCS(=O)(=O)c1cc(C2CC2)cnc1-c1nc2cc([S+]([O-])C(F)(F)F)ccc2n1C` (stereo not drawn) [Compound 1-4, 2-(3-ethylsulfonyl-5-cyclopropylpyridin-2-yl)-1-methyl-5-(trifluoromethylsulfinyl)benzimidazole], the mortality at 500 ppm in experiment [1] and in experiment [2] was 100% in each case. Besides, the inhibition at 100 ppm in experiment [4] is at least 50%. Moreover, the mortality at 50 ppm in experiment [5] is at least 90%. For the same compound, the mortality at 100 ppm in experiment [6] was at least 90%. Also, the pest or weed control at 500 ppm in experiment [3] was 100%.
Take `CCS(=O)(=O)c1cc(C2CC2)cnc1-c1nc2cc(S(=O)(=O)C(F)(F)F)ccc2n1C` [Compound 1-5, 2-(3-ethylsulfonyl-5-cyclopropylpyridin-2-yl)-1-methyl-5-(trifluoromethylsulfonyl)benzimidazole]: the mortality at 500 ppm in experiment [1] and in experiment [2] was 100% in each case. Further, the pest or weed control at 500 ppm in experiment [3] is 100%.
Regarding `CCSc1cc(C2(C#N)CC2)cnc1-c1nc2cc(SC(F)(F)F)ccc2n1C` [Compound 1-6], the mortality at 500 ppm in experiment [1] and in experiment [2] was 100% each time. In experiment [3], the pest or weed control at 500 ppm amounted to 100%.
Take `CCS(=O)(=O)c1cc(C2(C#N)CC2)cnc1-c1nc2cc(OC(F)(F)F)ccc2n1C` [Compound 1-85, 2-(5-(1-cyanocyclopropyl)-3-ethylsulfonyl-pyridin-2-yl)-1-m ethyl-5-trifluoromethoxybenzimidazole]: the mortality at 500 ppm in experiment [1] and in experiment [2] was 100% each time. Also, the pest or weed control at 500 ppm in experiment [3] was 100%.
